Assay results published in patent US4226883A, “Carbamate derivatives and method for manufacture thereof” (priority 1974, dated 1980).
In brackets after ≈: the same amount, converted by molar mass. Read-outs that look alike come from different tables or passages of the source.

Experiments:
[1] = biological target: cholinesterase (ChE), susceptible strain; test: Inhibition of cholinesterase (acetylthiocholine method), susceptible strain enzyme; type: biochemical, green rice leafhopper, Nephotettix cincticeps; details: 50% inhibition concentration, 30° C. 30 min with inhibitor, read-out: Inhibition of Cholinesterase I50 (M) S
Description: The activity of ChE was performed by the acethyethiocholine method [Ellman (1961), Biochemical Pharmacology 7: 88-95].
[…]. After centrifuged (30,000 g, 10 min.), the supernatant was used as the source of ChE.
(§1) (2) Inhibition: 1.0 ml of enzyme solution was incubated with 0.1 ml of inhibitor which diluted with acetone at 30° C. for 30 min. ((2) solution).
(3) Determination of ChE activity: 1.0 ml of acetylthiochline (3.5/2×10^-2 M), 1.0 ml of DTNB (5,5'-dithiobis-2-nitrobenzoic acid, 2.5×10^-4 M) and 4.0 ml of phosphate buffer (1/15 M, pH 7.4) were added to the (2) solution and incubated at 30° C. for 10 min. After incubation, […] of eserine (2×10^-3 M) was added in order to stop the enzyme reaction and the optical density of the yellow solution was measured at 412 mμ on the spectrophotometer.

[2] = test system: cholinesterase (ChE), resistant strain; type: biochemical, green rice leafhopper, Nephotettix cincticeps; details: for Inhibition of Cholinesterase R/S (resistant ratio): ratio of the resistant strain to the susceptible strain (I50), 30 min; for IC50: resistant strain, 50% inhibition concentration, 30° C. 30 min with inhibitor, read-out: Inhibition of Cholinesterase I50 (M) R
Description: After centrifuged (30,000 g, 10 min.), the supernatant was used as the source of ChE.
as §1
(3) Determination of ChE activity: 1.0 ml of acetylthiochline (3.5/2×10^-2 M), 1.0 ml of DTNB (5,5'-dithiobis-2-nitrobenzoic acid, 2.5×10^-4 M) and 4.0 ml of phosphate buffer (1/15 M, pH 7.4) were added to the (2) solution and incubated at 30° C. for 10 min.

[3] = test system: citrus red mites (Panonychus citri McGregor) immunized from Dimethoate; test: whole plant or invertebrate; details: foliar, 24 h, read-out: Mortality (%), Concentration 250 ppm
[4] = test system: sensitive green rice leafhoppers (S); details: susceptible strain, topical
Procedure, shortened: (§2)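 Test compounds were diluted in acetone and applied topically to the thorax of female green rice leafhoppers at 0.2 μl per head. Insects were then held in cups with […] at 26±1 °C, and mortality was counted after 24 h. LD50 for mixtures is expressed as total dosage.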

[5] = test system: resistant green rice leafhoppers (R); details: for Insecticidal Activity R/S (resistant ratio): ratio of the resistant strain to the susceptible strain (LD50)
Procedure, shortened: as §2

in vivo = details: mouse, po
Description: Different amounts of the suspension were injected into the stomaches of test mice with a metal tube. For the test, male mice of the species ddY were used.

[6] = test system: Culex pipiens pallens immunized against organophosphoric preparations, last larval state; test: Test Example 9 (W.H.O. method): mosquito larvae test; type: in vivo; details: read-out: Effect of compound used singly, LD50 (Table 16)
Description: (1) An ethyl alcohol solution of each test compound was diluted with water to varying concentrations in the range of from 0.01 to 1.0 ppm.
(2) A 200-ml portion of each solution of a different concentration was placed in a 300-ml beaker. Then 30 test insects were plunged into the solution and then removed.
(3) The insects removed from the solution were kept in a greenhouse at a constant temperature of 25±1° C. for 24 hours. At the end of 24 hours of standing, a count was taken of the number of insects that had died by that time.
The test described above was repeated twice or thrice.

[7] = test system: resistant green rice leafhoppers of RN-strain; details: green rice leafhopper, in vivo, topical or ocular
[8] = test system: green rice leafhoppers of the strain RN; test: Test Example 3: dust spray test (20 mesh metal gauze cylinder); type: in vivo, Nephotettix cincticeps; details: for mortality at 100 mg/cylinder / mortality at 250 mg/cylinder: 24 hr
[9] = resistant Culex pipiens pallens larvae, compound alone, 24 hours

In the case of `CCc1ccc(OC(=O)NC)cc1CC` [Compound 50, reference compound], the IC50 [1] is reported as 1.1e-06 M, the “Inhibition of Cholinesterase R/S (resistant ratio)” value [2] is reported as 46.4 and the IC50 [2] is reported as 5.1e-05 M. It also gave a mortality at 250 ppm [3] of 70%.
With `CNC(=O)Oc1cccc(C(C)(C)C)c1` [Compound 32, 3-tert-butylphenyl-N-methylcarbamate, reference compound] the IC50 [1] was 7.2e-07 M, the “Inhibition of Cholinesterase R/S (resistant ratio)” value [2] was 16.6 and the IC50 [2] was 1.2e-05 M. The “Insecticidal Activity (after 24 hrs.) LD50 (μg/g) S” value [4] was 1.6 µg/g, the “Insecticidal Activity R/S (resistant ratio)” value ([5]; 1440 min) was 31.3 and the “Insecticidal Activity (after 24 hrs.) LD50 (μg/g) R” value ([5]; resistant strain, topical, 24 hrs) was 50.0 µg/g.
In the case of `CCCNC(=O)Oc1ccccc1C(C)C` [Compound 3, 2-isopropylphenyl-N-n-propylcarbamate], the LD50 at 168 h (in vivo) is reported as 1130 mg/kg, the LC50 ([6]; Culex pipiens, 24 h) is reported as over 1 µg/mL and the “Insecticidal Activity R/S (resistant ratio)” value ([5]; 1440 min) is reported as 1.3.
For `COP(=S)(OC)Oc1ccc(SC)c(C)c1` [MPP, dimethyl 4-methylthio-m-tolyl phosphorothionate], the “LD50 (μg/g) (Table 13)” value [7] was > 1,000 μg/g and the LC50 [6, 9] was 0.1 µg/mL (≈ 0.359 µM).
For `CCOP(=S)(OCC)Oc1cc(C)nc(C(C)C)n1` [Diazinone, diethyl 2-isopropyl-6-methyl-4-pyrimidinyl phosphorothionate], the “LD50 (μg/g) (Table 13)” value [7] was 62.3 µg/g, the “LD50 (μg/g) (Table 14)” value [7] was 62.2 µg/g and the LC50 ([6]; Culex pipiens, 24 h) was 0.31 µg/mL (≈ 1.02 µM).
For `CCCNC(=O)Oc1ccc(CC)c(CC)c1` [Compound 51, 3,4-diethylphenyl-N-n-propylcarbamate], the mortality at 250 ppm [3] was 80%.
With `CNC(=O)Oc1ccccc1C(C)C` [Compound 1, 2-isopropylphenyl-N-methylcarbamate, reference compound] the “Effect of individual compound (RN), death ratio (%) (Table 9)” value ([8]; dust, compound alone, RN strain) was 0%, the LD50 at 168 h (in vivo) was 210 mg/kg and the “Insecticidal Activity R/S (resistant ratio)” value ([5]; 1440 min) was 23.0. For the same molecule, the “LD50 (μg/g) (Table 6), single compound” value ([5]; resistant strain (R), compound alone, 1440 min) was 82.2 µg/g.
Molecule `CCCNC(=O)Oc1cccc(C)c1` [Compound 26, 3-methylphenyl-N-n-propylcarbamate] has a mortality at 100 mg/cylinder ([8]; 2% dust, 100 mg, read-out: Mortality (%) after 24 hr., 100 mg Spray (Table 7)) of 70%, a mortality at 250 mg/cylinder ([8]; 2% dust, 250 mg, read-out: Mortality (%) after 24 hr., 250 mg Spray (Table 7)) of 100% and a mortality at 100 mg/cylinder ([8]; Table 8, dust 100 mg, read-out: Mortality (%) after 24 hr., Spray Volume 100 mg) of 70%. For the same molecule, the mortality at 250 mg/cylinder ([8]; Table 8, dust 250 mg, read-out: Mortality (%) after 24 hr., Spray Volume 250 mg) was 100%, the mortality at 250 ppm [3] was 85% and the LC50 ([6]; Culex pipiens, 24 h) was over 1 µg/mL. For the same molecule, the “Insecticidal Activity R/S (resistant ratio)” value ([5]; 1440 min) was 0.6.
`CCCNC(=O)Oc1cccc(C(C)CC)c1` (centres unmarked) [Compound 17, 3-sec-butylphenyl-N-n-propylcarbamate] gave an LD50 at 168 h (in vivo) of 30 to 300 mg/kg, a mortality (in vivo; 30 mg/kg) of 0% and a mortality (in vivo; 300 mg/kg) of 100%. The “Insecticidal Activity R/S (resistant ratio)” value ([5]; 1440 min) was 1.2.
For `CCOC(=O)C(SP(=S)(OC)OC)c1ccccc1` (stereo not drawn) [PAP, S-[α-(ethoxycarbonyl)benzyl]dimethyl phosphorothiolothionate], the “LD50 (μg/g) (Table 13)” value [7] was 804.3 µg/g and the LC50 [6, 9] was 0.16 µg/mL (≈ 0.499 µM).
For `CC(C)OP(=O)(OC(C)C)SCc1ccccc1` [IBP, S-benzyl diisopropyl phosphorothiolate], the “LD50 (μg/g) (Table 14)” value [7] was > 1,000 μg/g.
With `CCCNC(=O)Oc1cccc(C(C)CCC)c1` (centres unmarked) [Compound 21, 3-sec-amylphenyl-N-n-propylcarbamate] the LD50 at 168 h (in vivo) was 300 mg/kg and the “Insecticidal Activity R/S (resistant ratio)” value ([5]; 1440 min) was 2.9.
For `COP(=S)(OC)Oc1ccc([N+](=O)[O-])c(C)c1` [MEP, dimethyl 4-nitro-m-tolyl phosphorothionate], the “LD50 (μg/g) (Table 13)” value [7] was > 4,000 μg/g and the LC50 [6, 9] was 0.18 µg/mL (≈ 0.649 µM).
